Here are results for four compounds from publication PMC7433010, “Exploration of multi‐target effects of 3‐benzoyl‐5‐hydroxychromen‐2‐one in Alzheimer’s disease cell and mouse models” (Aging Cell, 2020).

Where two headings read alike, the source gives them in different places.

Data set [1] can be described thus: MTT cytotoxicity in uninduced ∆K280 TauRD‐DsRed 293 cells. The data set is classed as cell-based. Conditions: human. On the procedure: (§1) Licochalcone A and five derivative LM compounds were tested (Figure 1a). All six compounds were soluble up to 100 μM in a cell culture medium (Figure S1a). Based on molecular weight (MW), hydrogen bond donors (HBD), hydrogen bond acceptors (HBA), and calculated octanol/water partition coefficient (cLogP), all six compounds meet Lipinski's criteria in predicting oral bioavailability (Lipinski, Lombardo, Dominy, & Feeney, 1997) (Figure S1b). […] To choose the optimal treatment dose used for the best efficacy of the candidate compounds, a specific type of biphasic dose response of a compound called hormesis should take into consideration. Evidence has shown that a wide range of pharmaceutical products display a hermetic dose‐response feature, characterized by a low‐dose stimulation and a high‐dose inhibition (Calabrese et al., 2018; Concetta Scuto et al., 2019; Pilipenko et al., 2019). Therefore, we tested the compounds at a range of doses to find the optimal dose for the best therapeutic effect and the least cytotoxicity. Firstly, MTT assay was performed using uninduced ∆K280 TauRD‐DsRed 293 and retinoic acid‐differentiated SH‐SY5Y cells following treatment with the test compounds (0.1–10 μM) for 3 (for 293 cells) or 7 (for SH‐SY5Ycells) days. […] Congo red is an amyloidogenic dye known to reduce Aβ neurotoxicity (Lorenzo & Yankner, 1994).
(§2) Licochalcone A was purchased from Sigma-Aldrich, St. Louis, MO, USA. In-house LM compounds were synthesized and characterized by NMR spectrum as described (Lee et al., 2012, 2015, 2018). Tet-On ∆K280 TauRD-DsRed 293 and SH-SY5Y cells (Chang et al., 2016) were cultured in Dulbecco’s modified Eagles medium (DMEM) (293) or DMEM-F12 (SH-SY5Y) containing 10% fetal bovine serum (Invitrogen, Carlsbad, CA, USA), 5 μg/ml of blasticidin, and 100 μg/ml of hygromycin (InvivoGen, San Diego, CA, USA). Compound cytotoxicity was assessed by colorimetric assay for measuring cell metabolic activity. Briefly, 5 × 10^4 cells were plated (48-well plates), grown for 20 h, and treated with the test compounds ([…]). […], 20 µl of 3-(4,5-dimethylthiazol-2-yl)-2,5-diphenyltetrazolium bromide (MTT, 5 mg/ml in PBS; Sigma-Aldrich) was added to the cells and incubated at 37°C for 3 h. Then 200 µl of lysis buffer (10% Triton X-100, 0.1 N HCl, 18% isopropanol) was added and the absorbance of the insoluble product at OD 570 nm was measured by a microplate reader (FLx800 fluorescence microplate reader, Bio-Tek, Winooski, VT, USA). The half-maximal inhibitory concentration (IC50) was calculated using the interpolation method.
(§3) Figure S1. Test compounds. (a) Solubility (in cell culture medium) of test compounds. (b) Molecular weight (MW), hydrogen bond donor (HBD), hydrogen bond acceptor (HBA), calculated octanol-water partition coefficient (cLogP), polar surface area (PSA), and predicted blood-brain barrier (BBB) score of test compounds. (c) Cytotoxicity of test compounds against ∆K280 TauRD-DsRed 293 and SH-SY5Y cells using the MTT assay. Uninduced 293 cells were plated on day 1 and treated with 0.1–10 μM test compounds on day 2. Cell viability was measured on day 5 (n = 3). In addition, uninduced SH-SY5Y cells were seeded with all trans retinoic acid (RA; 10 µM) on day 1 and treated with 0.1–10 μM test compounds on day 2. Cell viability was measured on day 9 (n = 3). To normalize, the relative viability in compound untreated cells was set at 100%. IC50 values are listed.

A short description of data set [2]: MTT cytotoxicity in uninduced retinoic acid‐differentiated SH‐SY5Y cells. In kind it is cell-based. Conditions: human. On the procedure:
as §1, §2, §3

As to `C=CC(C)(C)c1cc(/C=C/C(=O)c2ccc(O)cc2)c(OC)cc1O` [licochalcone A, reference compound], in data set [1] (uninduced Tet-On ∆K280 TauRD-DsRed 293 cells, uninduced 293 cells, 3 days treatment, read-out: IC50 (MTT cytotoxicity)), the IC50 at 3 days was 7 µM. The IC50 at 7 days in data set [2] (uninduced retinoic acid‐differentiated SH‐SY5Y cells, 7 days treatment, read-out: IC50 (MTT cytotoxicity)) was 5.8 µM.

For the compound `COc1ccc(C(=O)/C=C/c2cc(Br)ccc2O)cc1` [LM‐004], the IC50 at 3 days in data set [1] was determined as 6.4 µM. This compound gave an IC50 at 7 days in data set [2] of 4.8 µM.

As for `Nc1c(/N=N/c2ccc(-c3ccc(/N=N/c4cc(S(=O)(=O)O)c5ccccc5c4N)cc3)cc2)cc(S(=O)(=O)O)c2ccccc12` [congo red, reference compound], in data set [1], inhibition was half-maximal at 36.4 µM (IC50 at 3 days). This compound displayed a concentration for half-maximal inhibition (IC50) at 7 days in data set [2] of 27.4 µM.

In data set [1], `O=C(c1ccccc1)c1cc2c(O)cccc2oc1=O` [LM‐031, 3‐benzoyl‐5‐hydroxychromen‐2‐one] came in with an IC50 at 3 days of 55.9 µM. In addition, in data set [2], the IC50 at 7 days came to 6.8 µM.
